Test results reported in paper PMC3665789 (PLoS ONE, 2013).
Where two headings read alike, the source gives them in different places.

Assays:
HIV-1 HE (R5/X4) = conditions: read-out: EC50 (µM ± SEM), PBMCs, p24 Ag ELISA
[1] = tested on: HIV-1 UG270 (clinical isolate; X4); conditions: PBMCs; UG270, group M subtype D; p24 Ag ELISA
R5 HIV-1 gp120 ADA = test: Surface plasmon resonance; assay type: binding; conditions: SPR, immobilized gp120 ADA, 25°C
Description: Recombinant gp120 proteins from X4 HIV-1 IIIB strain (ImmunoDiagnostics Inc., Woburn, MA) and from R5 HIV-1 strains ADA and YU2 (ImmunoDiagnostics Inc.) were covalently immobilized on a CM5 sensor chip in 10 mM sodium acetate, pH 4.0, using standard amine coupling chemistry. The chip densities were 8200 resonance units (RUs), 10760 RUs and 9626 RUs, respectively. A reference flow cell was used as a control for non-specific binding and refractive index changes. All interaction studies were performed at 25°C on a Biacore T200 instrument (GE Healthcare, Uppsala, Sweden). The compounds LabyA1 and nisin were serially diluted in HBS-P (10 mM HEPES, 150 mM NaCl and 0,05% surfactant P20; pH 7.4) supplemented with 5% dimethyl sulfoxide (DMSO, Merck), and 10 mM CaCl2 covering a concentration range between 7.8 and 31.3 µM, by using two-fold dilution steps. Samples (in duplicate) were injected for 2 minutes at a flow rate of 45 µl/min and the dissociation was followed for 4 minutes. Several buffer blanks were used for double referencing. The CM5 sensor chip surface was regenerated with a single injection of 50 mM NaOH. A DMSO concentration series was included to eliminate the contribution of DMSO to the measured response. […] The experimental data were fit using the 1∶1 binding model Biacore T200 Evaluation software 1.0 to determine the binding kinetics.

[2] = Cytotoxicity assay (MTS/PES); assay type: cell-based
Description: Cytotoxicity in PBMCs (3 days), MT-4 (5 days), HUT-78 (1 day), C8166-(5 days), HEL (3 days) and Daudi cells (3 days) was measured using the MTS/PES method. The duration of the assays is given between brackets.

[3] = tested on: HIV-1 NL4.3^2G12res. (X4); conditions: read-out: EC50 (µM ± SEM); MT-4 cells; NL4.3 resistant to mAb 2G12; MTS/PES
[4] = tested on: HSV-1 wild-type KOS (reference strain); conditions: HEL cells; HSV-1 KOS; reduction of virus-induced CPE by 50%
[5] = tested on: HSV-2 wild-type RV-124 (clinical isolate); conditions: HEL cells; HSV-2 RV-124; CPE
[6] = tested on: laboratory-adapted HIV strains
[7] = tested on: drug-resistant HIV strains; conditions: read-out: Median EC50; median over 6 drug-resistant HIV-1 strains in MT-4
CXCR4 = CXCR4 (Homo sapiens, UniProt P61073); test: Intracellular calcium mobilization (FLIPR), U87.CD4.CXCR4 cells; assay type: cell-based; parameters: expressed in transfected cells; host or cells: U87.CD4.CXCR4 (human astroglioma U87); conditions: 9.6 µM
Sequence of CXCR4 (P61073 whole entry): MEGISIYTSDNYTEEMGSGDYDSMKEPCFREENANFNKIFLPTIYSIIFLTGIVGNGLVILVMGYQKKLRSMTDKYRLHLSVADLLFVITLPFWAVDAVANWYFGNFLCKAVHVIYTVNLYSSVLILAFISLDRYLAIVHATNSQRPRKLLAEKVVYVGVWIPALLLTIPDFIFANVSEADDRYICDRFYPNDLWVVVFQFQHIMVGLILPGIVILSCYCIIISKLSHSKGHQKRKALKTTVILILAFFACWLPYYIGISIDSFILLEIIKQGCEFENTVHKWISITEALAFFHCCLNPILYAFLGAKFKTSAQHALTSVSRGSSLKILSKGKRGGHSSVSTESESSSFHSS
Description: Calcium (Ca^2+) mobilization assays were performed by the use of a fluorometric imaging plate reader (FLIPR) (Molecular Devices, Sunnyvale, CA) as described previously. Briefly, U87.CD4.CCR5 or U87.CD4.CXCR4 cells were digested by trypsin and seeded in gelatine-coated black-wall 96-well microplates at 2×10^4 cells per well. The next day, the cells were loaded with the fluorescent calcium indicator Fluo-3 acetoxymethyl ester (Molecular Probes, Leiden, The Netherlands) at 4 µM for 45 min at 37°C. Cells were washed 3 times in assay buffer (Hanks’ balanced salt solution with 20 mM HEPES buffer and 0.2% bovine serum albumin, pH 7.4) and incubated for 10 min with Laby A1. The intracellular calcium mobilization induced by LD78β in U87.CD4.CCR5 cells or by SDF-1 in U87.CD4.CXCR4 cells was then measured at 37°C by monitoring the fluorescence as a function of time simultaneously in all the wells. In addition, potential intracellular calcium mobilization induced by Laby A1 was also investigated.

## C/C=C1\NC(=O)[C@H](Cc2ccccc2)NC(=O)[C@@H]2CCCN2C(=O)[C@H](C(C)C)NC(=O)[C@H](Cc2c[nH]c3ccccc23)NC(=O)[C@]23CSC[C@H](NC1=O)C(=O)N[C@H](C(=O)O)CSSC[C@H](NC(=O)[C@@H]1CSC[C@]4(C[C@H](N)C(=O)N[C@@H](CC(N)=O)C(=O)N[C@@H](C)C(=O)N4)C(=O)N[C@@H](C(C)C)C(=O)N[C@@H](Cc4c[nH]c5ccccc45)C(=O)N[C@@H](CCC(=O)O)C(=O)N1)C(=O)N[C@@H](C2)C(=O)N[C@@H]([C@@H](C)O)C(=O)NCC(=O)N3 [LabyA1, labyrinthopeptin A1]
HIV-1 HE (R5/X4)
  EC50: 1.8 ± 0.3 µM
[1]
  EC50: 1500 ± 100 nM
R5 HIV-1 gp120 ADA
  Kd: 12300 ± 2200 nM
[2]; C8166 cells, 5 days
  CC50: 23000 nM
[2]; Daudi cells, 3 days
  CC50: > 48000 nM
[2]; HUT-78 cells, 1 day
  CC50: > 31000 nM
[2]; MT-4 cells, 5 days
  CC50: 33000 nM
[2]; PBMCs, 3 days
  CC50: 45000 nM
[3]
  EC50: 2.2 ± 0.3 µM
[4]
  EC50: 560 ± 50 nM
[5]
  EC50: 1400 ± 400 nM
[6]; read-out: EC50 range, range over cell-line adapted HIV strains (Table 1)
  EC50: 790 to 3300 nM
[6]; read-out: Median EC50, median over laboratory-adapted HIV strains in MT-4, PBMCs, MDM
  EC50: 1900 nM
[7]
  EC50: 2100 nM
CXCR4
  induction of calcium signaling by compound itself: could not induce by itself calcium signaling
CXCR4; 100 ng/ml SDF-1α
  inhibition of SDF-1α (CXCL12)-induced intracellular calcium flux: could also not inhibit the intracellular calcium flux
